The values below come from publication PMC9331004 (Scientific Reports, 2022).

Each structure is given as a SMILES string. Where two headings read alike, the source gives them in different places.

Series [1] concerns SARS-CoV-2. It counts as cell-based.
The subject of series [2] is SARS-CoV-2 (hCoV-19/Egypt/NRC-3/2020, NRC-03-nhCoV). As to the kind of experiment: microbe, parasite or virus in culture. It counts as cell-based. Particulars: for IC50: Severe acute respiratory syndrome coronavirus 2, Vero C1008, 72 h.
A further series in a line: in vitro. Particulars: African green monkey, CC50, Vero-E6 cells, crystal violet.
Series [3] has as its system MERS-CoV (isolate NRCE-HKU270). As to the kind of experiment: microbe, parasite or virus in culture. Format: cell-based. Particulars: for IC50: Middle East respiratory syndrome-related coronavirus.
Series [4] relates to SARS-CoV-2. The series can be described thus: microbe, parasite or virus in culture. Format: cell-based.
For series [5], the system named is MERS-CoV. Format: cell-based.
Series [6] deals with MERS-CoV. Format: cell-based. This is another data set of the same source.
[7] abbreviates: read-out: IC50 against SARS-CoV-2.
[8] abbreviates: Vero C1008, read-out: IC50 against MERS-CoV.
Setting [9] is: Vero C1008, read-out: IC50 MERS-CoV.

With `CN(C)CCC=C1c2ccccc2CCc2ccccc21` [Amitriptyline], the “mode of action against SARS-CoV-2” value in the series with SARS-CoV-2 [1] is “remarkable virucidal effect and effects on virus replication”. Moreover, the “selectivity index (CC50/IC50) for SARS-CoV-2” value in series [2] stood at 28.5. Besides, the IC50 in series [2] (setting [7]) turned out to be 10.7 µM; in series [3] (setting [8]), 129 µM. The molecule further displayed a half-maximal cytotoxic concentration (CC50) at 72 h in the series “in vitro” of 306 µM. The “effect on viral RNA copy number (qRT-PCR)” value (“effect” below) in the series on SARS-CoV-2 [4] is “reduction in viral RNA copy number”.
In the case of `CN(C)CCCC1(c2ccc(F)cc2)OCc2cc(C#N)ccc21` (stereo not drawn) [Citalopram], the concentration for half-maximal inhibition (IC50) in series [2] (setting [7]) turned out to be 172 µM; in series [3] (setting [9]) it was 303 µM; in series [3] (setting [8]), 302 µM. In addition, the half-maximal cytotoxic concentration (CC50) at 72 h in the series “in vitro” and in the series “in vitro” (values given in Fig. 2) was 295 µM in each case.
As to `CN(C)CCC[C@@]1(c2ccc(F)cc2)OCc2cc(C#N)ccc21` [Escitalopram], the results for the half-maximal inhibitory concentration (IC50) in series [2] (setting [7]), in series [3] (setting [9]) and in series [3] (setting [8]) were 209 µM, 93.6 µM and 93.5 µM, respectively. The same molecule came in with a 50% cytotoxic concentration (CC50) at 72 h in the series “in vitro” of 352 µM.
As to `CN1CCN(C(=O)O[C@H]2c3nccnc3C(=O)N2c2ccc(Cl)cn2)CC1` [Eszopiclone], the half-maximal inhibitory concentration (IC50) is 80 µM in series [2] (read-out: IC50 SARS-CoV-2), 80 µM in series [2] (setting [7]) and 99.9 µM in series [3] (setting [8]). The molecule further came in with a 50% cytotoxic concentration (CC50) at 72 h in the series “in vitro” of 193 µM.
Turning to `CN(C)CCCN1c2ccccc2CCc2ccccc21` [Imipramine], the “mode of action against MERS-CoV” value with MERS-CoV [5] was “virucidal and replication potential combination mechanisms”. For the same molecule, the figures for the IC50 in series [2] (read-out: IC50 SARS-CoV-2), in series [2] (setting [7]) and in series [3] (setting [8]) were 29.5 µM, 29.4 µM and 14.2 µM, respectively. The results for the CC50 at 72 h in the series “in vitro” and in “in vitro” (values given in Fig. 2) were 270 µM and 271 µM, respectively. Also, the “selectivity index (CC50/IC50) for MERS-CoV” value in series [3] was 19. For the same molecule, in the series on MERS-CoV [6], the “effect” value is “reduction in viral RNA copy number”.
In the case of `CN1CCN2c3ncccc3Cc3ccccc3C2C1` (stereo not drawn) [Mirtazapine], the figures for the IC50 in series [2] (setting [7]) and in series [3] (setting [8]) were 180 µM and 132 µM, respectively. Further, the cytotoxic concentration (CC50) at 72 h in “in vitro” and in the series “in vitro” (values given in Fig. 2) was 572 µM in each case.
For the molecule `Fc1ccc([C@@H]2CCNC[C@H]2COc2ccc3c(c2)OCO3)cc1` [Paroxetine], the “mode of action against SARS-CoV-2” value with SARS-CoV-2 [1] was “remarkable virucidal effect and effects on virus replication”. Also, the “mode of action against MERS-CoV” value in the series with MERS-CoV [5] is “virucidal and replication potential combination mechanisms”. The “selectivity index (CC50/IC50) for SARS-CoV-2” value in series [2] is on record as 11.6. The half-inhibitory concentration (IC50) in series [2] (setting [7]) was 22.7 µM; in series [3] (setting [9]), 7.73 µM; in series [3] (setting [8]), 7.7 µM. In the series “in vitro”, this molecule gave a CC50 at 72 h of 264 µM. The “selectivity index (CC50/IC50) for MERS-CoV” value in series [3] is recorded as 34.2. For the same molecule, the “effect” value in the series with MERS-CoV [6] and in the series with SARS-CoV-2 [4] was “reduction in viral RNA copy number” in each case. For the same molecule, the inhibition at 8.3 µM in the series with SARS-CoV-2 [4] (Severe acute respiratory syndrome coronavirus 2, Vero C1008, 48 h, read-out: viral inhibition compared to untreated and infected cells (qRT-PCR)) was 99%.
As for `CN[C@H]1CC[C@@H](c2ccc(Cl)c(Cl)c2)c2ccccc21` [Sertraline], the “mode of action against MERS-CoV” value in the series on MERS-CoV [5] is “virucidal and adsorption mechanisms”. The CC50 at 72 h in the series “in vitro” is 116 µM. Besides, the “effect” value in the series with MERS-CoV [6] is “reduction in viral RNA copy number”.
